The values below come from PMC7587356, “High-Throughput Screening for Inhibitors of the SARS-CoV-2 Protease Using a FRET-Biosensor” (Molecules, 2020).

The target in this assay is SARS-CoV-2 3CLpro (Severe acute respiratory syndrome coronavirus 2, UniProt P0DTD1). The assay is described as follows: biochemical. Conditions: for inhibition at 5 µM: 4 h. In kind it is biochemical. The arrangement: Replicate_1 / Replicate_2 / mean / mean (LOPAC_screen_w_protease): unit not given here.
The mark [1] stands for this setting: LOPAC1280 primary screen with protease, 5 µM compound, replicate 1, read-out: Replicate_1 (LOPAC_screen_w_protease).
Where [2] appears, read: LOPAC1280 primary screen with protease, 5 µM compound, replicate 2, read-out: Replicate_2 (LOPAC_screen_w_protease).
[3] abbreviates: LOPAC1280 primary screen with protease, 5 µM compound, mean of two replicates.
The mark [4] stands for this setting: sheet LOPAC_screen_w_protease, primary screen with protease, compound at 5 µM, mean of two replicates.
Where [5] appears, read: sheet LOPAC_screen_w_protease, primary screen with protease, compound at 5 µM, replicate 1.
[6] abbreviates: sheet LOPAC_screen_w_protease, primary screen with protease, compound at 5 µM, replicate 2.
[7] abbreviates: LOPAC1280 primary screen with protease, 5 µM compound, mean of the two replicates.
Setting [8] is: LOPAC1280 primary screen with protease, 5 µM compound, replicate 2.
Where [9] appears, read: sheet LOPAC_screen_w_protease, primary screen at 5 µM, mean of two replicates.
The mark [10] stands for this setting: sheet LOPAC_screen_w_protease, primary screen at 5 µM, replicate 1.
[11] abbreviates: sheet LOPAC_screen_w_protease, primary screen at 5 µM, replicate 2.
Where [12] appears, read: LOPAC1280 primary screen with protease, 5 µM compound, replicate 1.
Setting [13] is: sheet LOPAC_screen_w_protease, LOPAC1280 primary screen at 5 µM, with protease, mean of the two replicates.
Where [14] appears, read: sheet LOPAC_screen_w_protease, LOPAC1280 primary screen at 5 µM, with protease, replicate 1.
[15] abbreviates: sheet LOPAC_screen_w_protease, LOPAC1280 primary screen at 5 µM, with protease, replicate 2.
Where [16] appears, read: sheet LOPAC_screen_w_protease, LOPAC1280 primary screen with protease, 5 µM compound, mean of the two replicates.
Where [17] appears, read: sheet LOPAC_screen_w_protease, LOPAC1280 primary screen with protease, 5 µM compound, replicate 1.
The mark [18] stands for this setting: sheet LOPAC_screen_w_protease, LOPAC1280 primary screen with protease, 5 µM compound, replicate 2.
Setting [19] is: sheet LOPAC_screen_w_protease, primary screen with protease, 5 µM, mean of two replicates.
Where [20] appears, read: sheet LOPAC_screen_w_protease, primary screen with protease, 5 µM, replicate 1.
[21] abbreviates: sheet LOPAC_screen_w_protease, primary screen with protease, 5 µM, replicate 2.

Structures are written as SMILES. Structures can show the parent of a compound that is named as a salt. Where two headings read alike, the source gives them in different places.

`COc1ccc2c(c1OC)C(=O)OC2C1c2cc3c(cc2CCN1C)OCO3` (single isomer, unassigned; (+)) [(+)-Hydrastine]: the inhibition at 5 µM reads like this: under setting [1], 2.51%; under setting [2], 0.711%. Moreover, the “mean (LOPAC_screen_w_protease)” value under setting [3] is 1.61.

Under setting [4], `CC12NC(Cc3ccccc31)c1ccccc12.O=C(O)/C=C\C(=O)O` (single isomer, unassigned; (+)) [(+)-MK-801 hydrogen maleate] yielded a mean of 2.6873. Also, the Replicate_1 under setting [5] is listed as 4.9061. Further, the Replicate_2 under setting [6] is listed as 0.4685.

`CC(C)NCC(O)c1ccc(O)c(O)c1.Cl` (single isomer, unassigned; (-)) [(-)-Isoproterenol hydrochloride]: under setting [7], the “mean (LOPAC_screen_w_protease)” value came out at 2.084. Moreover, the “Replicate_2 (LOPAC_screen_w_protease)” value under setting [8] is given as 1.275.

With `CC(N)C(O)c1ccc(O)c(O)c1` (single isomer, unassigned; (-)) [(-)-alpha-Methylnorepinephrine], the “mean (LOPAC screen with protease)” value under setting [9] came out at 8.627. For the same molecule, the “Replicate_1 (LOPAC screen with protease)” value under setting [10] worked out at 8.881. Moreover, under setting [11], the “Replicate_2 (LOPAC screen with protease)” value turned out to be 8.372.

Regarding `Nc1nc(Cl)nc2c1ncn2[C@@H]1O[C@H](COP(=O)(O)OP(=O)(O)OP(=O)(O)O)C(O)C1O` (stereo in doubt), the “mean (LOPAC_screen_w_protease)” value under setting [3] is given as 1.575. The “Replicate_1 (LOPAC_screen_w_protease)” value under setting [12] is 3.171. The “Replicate_2 (LOPAC_screen_w_protease)” value under setting [8] is on record as -0.0216.

With `N.N.N.Nc1ncnc2c1ncn2C1OC(COP(=O)(O)OP(=O)(O)OP(=O)(O)OP(=O)(O)OC[C@H]2O[C@@H](n3cnc4c(N)ncnc43)C(O)C2O)[C@@H](O)C1O` (stereo in doubt), the “mean (LOPAC_screen_w_protease)” value under setting [7] is 2.093. In addition, the “Replicate_1 (LOPAC_screen_w_protease)” value under setting [12] is listed as 3.71. In addition, under setting [8], the “Replicate_2 (LOPAC_screen_w_protease)” value was 0.4753.

The molecule `Nc1ncnc2c1nc(Sc1ccc(Cl)cc1)n2C1OC2COP(=O)(O)OC2C1O` (stereo in doubt) [8-(4-Chlorophenylthio)-cAMP sodium] displayed a mean under setting [13] of 0.5451. The molecule also returned a Replicate_1 under setting [14] of 0.8706. The same molecule gave a Replicate_2 under setting [15] of 0.2195.

For `CCCCC1(C2CCCC2)Cc2cc(OCC(=O)O)c(Cl)c(Cl)c2C1=O` (stereo in doubt) [R(+)-Butylindazone], the mean (sheet LOPAC_screen_w_protease, primary screen with protease, mean of two replicates) came to 2.217. The Replicate_1 (sheet LOPAC_screen_w_protease, primary screen with protease, replicate 1) turned out to be 3.715. The molecule also showed a Replicate_2 (sheet LOPAC_screen_w_protease, primary screen with protease, replicate 2) of 0.7192.

`CCn1c(=O)c2nc(-c3ccccc3)[nH]c2n(CC)c1=O` [1,3-Diethyl-8-phenylxanthine]: the inhibition at 5 µM (sheet LOPAC_screen_w_protease, primary screen of LOPAC1280 at 5 µM with protease, mean of the two replicates, read-out: mean) is 3.47%; the inhibition at 5 µM (sheet LOPAC_screen_w_protease, primary screen of LOPAC1280 at 5 µM with protease, replicate 1, read-out: Replicate_1) worked out at 3.04%; the inhibition at 5 µM (sheet LOPAC_screen_w_protease, primary screen of LOPAC1280 at 5 µM with protease, replicate 2, read-out: Replicate_2) turned out to be 3.9%.

Under setting [16], `Cn1c(=O)c2[nH]c(-c3ccccc3)nc2n(C)c1=O` [1,3-Dimethyl-8-phenylxanthine] showed a mean of 6.36. This molecule also yielded a Replicate_1 under setting [17] of 5.626. Under setting [18], the Replicate_2 is listed as 7.0953.

Molecule `CCCn1c(=O)c2c(ncn2C)n(CCC)c1=O` [1,3-Dipropyl-7-methylxanthine] showed a mean under setting [4] of 3.018. Moreover, the Replicate_1 under setting [5] was determined as 3.463. Also, under setting [6], the Replicate_2 stood at 2.572.

In the case of `CCCn1c(=O)c2[nH]c(-c3ccc(S(=O)(=O)O)cc3)nc2n(CCC)c1=O` [1,3-Dipropyl-8-p-sulfophenylxanthine], the “mean (LOPAC screen with protease)” value under setting [9] was determined as 7.8949. Also, the “Replicate_1 (LOPAC screen with protease)” value under setting [10] stood at 7.582. Further, the “Replicate_2 (LOPAC screen with protease)” value under setting [11] came out at 8.208.

Consider `Br.Br.N=C(N)SCCc1cccc(CCSC(=N)N)c1` [1,3-PBIT dihydrobromide], for which, under setting [3], the “mean (LOPAC_screen_w_protease)” value is 1.415. Besides, the “Replicate_1 (LOPAC_screen_w_protease)” value under setting [12] was 1.3545. The “Replicate_2 (LOPAC_screen_w_protease)” value under setting [8] is reported as 1.476.

Turning to `OC[C@H]1NC[C@@H](O)[C@@H]1O` [1,4-Dideoxy-1,4-imino-D-arabinitol], under setting [3], the “mean (LOPAC_screen_w_protease)” value turned out to be 1.627. For the same molecule, under setting [12], the “Replicate_1 (LOPAC_screen_w_protease)” value is 1.388. The “Replicate_2 (LOPAC_screen_w_protease)” value under setting [8] worked out at 1.866.

With `Br.Br.N=C(N)SCCc1ccc(CCSC(=N)N)cc1` [1,4-PBIT dihydrobromide], under setting [13], the mean worked out at 0.7618. The Replicate_1 under setting [14] turned out to be 0.8182. Besides, the Replicate_2 under setting [15] worked out at 0.7055.

With `Oc1cccc2c(O)nccc12` [1,5-Isoquinolinediol], under setting [7], the “mean (LOPAC_screen_w_protease)” value is reported as 2.037. For the same molecule, the “Replicate_1 (LOPAC_screen_w_protease)” value under setting [12] is given as 1.193. Besides, under setting [8], the “Replicate_2 (LOPAC_screen_w_protease)” value came out at 2.882.

Consider `Cn1c(=O)[nH]c2ncn(C)c2c1=O` [1,7-Dimethylxanthine], for which the inhibition at 5 µM worked out at 1.95% under setting [1] and 1.66% under setting [2]. In addition, the “mean (LOPAC_screen_w_protease)” value under setting [7] was 1.802.

In the case of `NCCCCCCCCCCN` [1,10-Diaminodecane], the inhibition at 5 µM by setting is: (sheet LOPAC_screen_w_protease, primary screen with protease, mean of two replicates, read-out: mean) 2.36%; (sheet LOPAC_screen_w_protease, primary screen with protease, replicate 1, read-out: Replicate_1) 3.01%; (sheet LOPAC_screen_w_protease, primary screen with protease, replicate 2, read-out: Replicate_2) 1.71%.

In turn, `O.c1cnc2c(c1)ccc1cccnc12` [1,10-Phenanthroline monohydrate] gave a mean under setting [19] of 0.3766. Also, under setting [20], the Replicate_1 is -0.05956. Under setting [21], this molecule registered a Replicate_2 of 0.8127.

As to `Cl.c1ccc2c(N3CCNCC3)cccc2c1` [1-(1-Naphthyl)piperazine hydrochloride], under setting [3], the “mean (LOPAC_screen_w_protease)” value stood at 1.563. The “Replicate_1 (LOPAC_screen_w_protease)” value under setting [12] was 4.027. Further, the “Replicate_2 (LOPAC_screen_w_protease)” value under setting [8] is reported as -0.9014.

For the molecule `Oc1ccc(Cn2cc[nH]c2=S)cc1` [1-(4-Hydroxybenzyl)imidazole-2-thiol], the inhibition at 5 µM was 35.7% (sheet LOPAC_screen_w_protease, primary screen at 5 µM, mean of two replicates, read-out: mean (LOPAC screen with protease)); 39.5% (sheet LOPAC_screen_w_protease, primary screen at 5 µM, replicate 1, read-out: Replicate_1 (LOPAC screen with protease)); 31.9% (sheet LOPAC_screen_w_protease, primary screen at 5 µM, replicate 2, read-out: Replicate_2 (LOPAC screen with protease)).

`Nn1nnc2ccccc21` [1-Aminobenzotriazole] showed a mean (sheet LOPAC_screen_w_protease, LOPAC1280 at 5 µM, mean of two replicates) of 1.253. The Replicate_1 (sheet LOPAC_screen_w_protease, LOPAC1280 at 5 µM, replicate 1) is 1.647. For the same molecule, the Replicate_2 (sheet LOPAC_screen_w_protease, LOPAC1280 at 5 µM, replicate 2) was determined as 0.8595.

Take `OC[C@H]1NC[C@H](O)[C@@H](O)[C@@H]1O` [1-Deoxynojirimycin hydrochloride]: the inhibition at 5 µM (sheet LOPAC_screen_w_protease, primary screen with protease, compound at 5 µM, mean of two replicates, read-out: mean) came to 2.78%; the inhibition at 5 µM (sheet LOPAC_screen_w_protease, primary screen with protease, compound at 5 µM, replicate 1, read-out: Replicate_1) came out at 4.02%; the inhibition at 5 µM (sheet LOPAC_screen_w_protease, primary screen with protease, compound at 5 µM, replicate 2, read-out: Replicate_2) turned out to be 1.54%.

Regarding `Cl.Cl.Cn1cnc(CCN)c1` [1-Methylhistamine dihydrochloride], under setting [16], the mean turned out to be 4.368. For the same molecule, the Replicate_1 under setting [17] was 3.059. Moreover, under setting [18], the Replicate_2 was found to be 5.677.

On to `Cn1ccnc1` [1-Methylimidazole], for which the inhibition at 5 µM was determined as 4.84% (sheet LOPAC_screen_w_protease, LOPAC1280 primary screen with protease, 5 µM compound, mean of the two replicates, read-out: mean); 4.68% (sheet LOPAC_screen_w_protease, LOPAC1280 primary screen with protease, 5 µM compound, replicate 1, read-out: Replicate_1); 4.99% (sheet LOPAC_screen_w_protease, LOPAC1280 primary screen with protease, 5 µM compound, replicate 2, read-out: Replicate_2).

Consider `S=C(Nc1ccccc1)Nc1nccs1` [1-Phenyl-3-(2-thiazolyl)-2-thiourea], for which the “mean (LOPAC screen with protease)” value under setting [9] stood at 7.407. In addition, the “Replicate_1 (LOPAC screen with protease)” value under setting [10] amounted to 6.341. Also, the “Replicate_2 (LOPAC screen with protease)” value under setting [11] came to 8.4724.

Regarding `N=C(N)NC(=N)Nc1ccccc1` [1-Phenylbiguanide], the mean under setting [13] worked out at 0.7649. Further, the Replicate_1 under setting [14] was -0.09991. Besides, the Replicate_2 under setting [15] worked out at 1.6298.

For the molecule `FC(F)(F)c1ccccc1-n1ccnc1` [1-[2-(Trifluoromethyl)phenyl]imidazole], the mean under setting [19] is given as -0.5336. The molecule further showed a Replicate_1 under setting [20] of 0.8297. Under setting [21], this molecule had a Replicate_2 of -1.897.

With `Cc1cn([C@H]2C=C[C@@H](CO)O2)c(=O)[nH]c1=O` [2',3'-didehydro-3'-deoxythymidine], the “mean (LOPAC_screen_w_protease)” value under setting [7] came out at 1.906. Further, the “Replicate_1 (LOPAC_screen_w_protease)” value under setting [12] stood at 2.073. The “Replicate_2 (LOPAC_screen_w_protease)” value under setting [8] is given as 1.738.
